Measured values reported in the supplement of paper PMC6045584.
± gives the standard deviation of the averaged measurements.

How the values were obtained:
[1] = compound: O=C(NOCC1CC1)c1ccc(F)c(F)c1Nc1ccc(I)cc1Cl; test: surviving fraction relative to DMSO-only wells; higher = less growth inhibition; conditions: exposure time: 5 days
Summary of the method: (§1)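 In 384-well plates, 250–500 log-phase tumour cells per well were given 24 hours before five days of continuous exposure to inhibitors at 0.5, 1, 5, 10, 50, 100, 500 and 1000 nM. Surviving fraction is luminescence from CellTiter-Glo, normalised to the median of wells containing DMSO alone. Reading took place after 10 minutes at room temperature.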

PLX-4720 = compound: CCCS(=O)(=O)Nc1ccc(F)c(C(=O)c2c[nH]c3ncc(Cl)cc23)c1F [PLX-4720]; test: as above; conditions: exposure time: 5 days
Summary of the method: as §1

Test System	surviving fraction ([1]; 0.5 nM)	surviving fraction ([1]; 1 nM)	surviving fraction ([1]; 5 nM)	surviving fraction ([1]; 10 nM)	surviving fraction ([1]; 50 nM)	surviving fraction ([1]; 100 nM)	surviving fraction ([1]; 500 nM)	surviving fraction ([1]; 1000 nM)	surviving fraction (PLX-4720; 0.5 nM)	surviving fraction (PLX-4720; 1 nM)	surviving fraction (PLX-4720; 5 nM)	surviving fraction (PLX-4720; 10 nM)	surviving fraction (PLX-4720; 50 nM)	surviving fraction (PLX-4720; 100 nM)	surviving fraction (PLX-4720; 500 nM)	surviving fraction (PLX-4720; 1000 nM)
22RV1 PROSTATE	0.93 ± 0.034	1.03 ± 0.044	0.917 ± 0.04	0.851 ± 0.038	0.714 ± 0.068	0.6767 ± 0.0032	0.631 ± 0.037	0.526 ± 0.019	1 ± 0.011	0.966 ± 0.076	0.971 ± 0.032	0.958 ± 0.036	0.936 ± 0.04	0.929 ± 0.053	0.825 ± 0.095	0.872 ± 0.049
93VU HEADNECK	0.859 ± 0.026	0.873 ± 0.089	0.979 ± 0.061	0.828 ± 0.051	0.785 ± 0.074	0.751 ± 0.037	0.417 ± 0.036	0.311 ± 0.097	0.755 ± 0.071	0.813 ± 0.082	0.798 ± 0.044	0.877 ± 0.024	1.08 ± 0.011	1.07 ± 0.081	0.998 ± 0.092	1.02 ± 0.054
143B BONE	0.887 ± 0.14	0.98 ± 0.0057	0.97 ± 0.018	1 ± 0.037	0.857 ± 0.13	0.957 ± 0.037	0.841 ± 0.028	0.542 ± 0.021	0.979 ± 0.03	0.972 ± 0.023	0.99 ± 0.021	0.968	0.959 ± 0.061	0.986 ± 0.0071	0.855 ± 0.13	0.996 ± 0.028
A549 LUNG	0.931 ± 0.014	0.95667 ± 0.00058	0.947 ± 0.017	0.956 ± 0.019	0.964 ± 0.027	1.01 ± 0.02	0.93 ± 0.013	0.886 ± 0.015	0.904 ± 0.027	0.928 ± 0.017	0.922 ± 0.017	0.922 ± 0.03	0.942 ± 0.012	0.98 ± 0.018	0.975 ± 0.027	1.02 ± 0.047
ASKA SYNOVIAL	0.658 ± 0.015	1.08 ± 0.052	1.08 ± 0.049	1.14 ± 0.035	0.847 ± 0.019	1.11 ± 0.073	0.973 ± 0.034	0.903 ± 0.029	0.402 ± 0.04	0.905 ± 0.07	0.923 ± 0.041	1 ± 0.096	0.635 ± 0.032	1.21 ± 0.033	1.02 ± 0.077	1.08 ± 0.045
BT20 BREAST	0.994 ± 0.099	1.06 ± 0.055	1.03 ± 0.091	0.962 ± 0.13	0.905 ± 0.12	0.928 ± 0.055	0.864 ± 0.061	0.849 ± 0.069	0.783 ± 0.2	0.849 ± 0.16	0.774 ± 0.065	0.803 ± 0.056	1.07 ± 0.1	1.03 ± 0.19	1.05 ± 0.087	1.12 ± 0.067
BT549 BREAST	1.03 ± 0.11	1.07 ± 0.088	1.08 ± 0.23	1.14 ± 0.03	1.15 ± 0.062	1.21 ± 0.044	1.3 ± 0.067	1.23 ± 0.16	0.855 ± 0.11	0.839 ± 0.092	0.857 ± 0.092	0.902 ± 0.074	1.09 ± 0.036	1.29 ± 0.061	1.19 ± 0.03	1.05 ± 0.15
CADOES1 SOFT TISSUE	0.913 ± 0.11	0.844 ± 0.075	0.894 ± 0.15	0.86 ± 0.081	0.903 ± 0.061	0.918 ± 0.1	0.875 ± 0.14	0.746 ± 0.14	0.944 ± 0.025	0.935 ± 0.063	0.915 ± 0.051	0.933 ± 0.075	0.999 ± 0.14	0.869 ± 0.034	0.939 ± 0.075	1 ± 0.049
CAL51 BREAST	0.975 ± 0.021	1 ± 0.032	0.981 ± 0.055	0.993 ± 0.017	0.934 ± 0.058	0.944 ± 0.042	0.878 ± 0.032	0.8495 ± 0.0082	0.926 ± 0.04	0.897 ± 0.026	0.985 ± 0.045	0.939 ± 0.038	0.992 ± 0.027	1.02 ± 0.029	1.04 ± 0.052	1.05 ± 0.04
CAL120 BREAST	0.928 ± 0.018	0.9302 ± 0.008	0.966 ± 0.025	0.908 ± 0.015	0.899 ± 0.036	0.898 ± 0.015	0.8322 ± 0.0043	0.805 ± 0.01	0.852 ± 0.027	0.899 ± 0.051	0.904 ± 0.04	0.881 ± 0.037	0.896 ± 0.022	0.946 ± 0.023	0.889 ± 0.071	0.911 ± 0.013
